Assay results: patent US20070128217A1 (priority 2003, published 2007)

Columns and labels:
[1] = tested on: antibodies in sera from SARS patients (sera 1a, 1b, 2, 6, 37, 62, London, SARS-yellow, SARS-green); format: binding, human; design: Binding of serum 6 to linear peptides of protein X1 of SARS-CoV Urbani / Binding of serum 37 to linear peptides of protein X1 of SARS-CoV Urbani / Binding of serum 6 to looped/cyclic peptide (PEPSCAN-ELISA) / Binding of serum 37 to looped/cyclic peptide (PEPSCAN-ELISA) / Binding of serum 37 to looped/cyclic peptides of protein X1 of SARS-CoV Urbani / Binding of serum 6 to linear peptides of protein X2 / Binding of serum 37 to linear peptides of protein X2 / Binding of serum 37 to looped/cyclic peptides of protein X2 of SARS-CoV Urbani / Binding of serum 6 to linear peptides of protein M of SARS-CoV Urbani / Binding of serum 37 to linear peptides of protein M of SARS-CoV Urbani / Binding of serum 6 to looped/cyclic peptides of protein M of SARS-CoV Urbani / Binding of serum 37 to looped/cyclic peptides of protein M of SARS-CoV Urbani / Binding of serum 6 to linear peptides of protein X3 of SARS-CoV Urbani / Binding of serum 37 to linear peptides of protein X3 of SARS-CoV Urbani / Binding of serum 37 to looped/cyclic peptides of protein X3 of SARS-CoV Urbani / Binding of serum 6 to linear peptides of protein X4 of SARS-CoV Urbani / Binding of serum 37 to linear peptides of protein X4 of SARS-CoV Urbani / Binding of serum 37 to looped/cyclic peptides of protein X4 of SARS-CoV Urbani / Binding of serum 6 to linear peptides of protein X5 of SARS-CoV Urbani / Binding of serum 37 to linear peptides of protein X5 of SARS-CoV Urbani / Binding of serum 37 to looped/cyclic peptides of protein X5 of SARS-CoV Urbani / Binding of serum 6 to linear peptides of protein N of SARS-CoV Urbani / Binding of serum 37 to linear peptides of protein N of SARS-CoV Urbani / Binding of serum 6 to linear peptide (PEPSCAN-ELISA) / Binding of serum 1a to looped/cyclic peptides of protein N of SARS-CoV Urbani / Binding of serum 1b to looped/cyclic peptides of protein N of SARS-CoV Urbani / Binding of serum 2 to looped/cyclic peptides of protein N of SARS-CoV Urbani / Binding of serum 6 to looped/cyclic peptides of protein N of SARS-CoV Urbani / Binding of serum 37 to looped/cyclic peptides of protein N of SARS-CoV Urbani / Binding of serum 62 to looped/cyclic peptides of protein N of SARS-CoV Urbani / Binding of serum London to looped/cyclic peptides of protein N of SARS-CoV Urbani / Binding of serum SARS-green to looped/cyclic peptides of protein N of SARS-CoV Urbani: unit not given here
[2] = tested on: control sera (pooled serum of ten healthy LUMC hospital workers; commercial negative donor pooled serum from the Dutch bloodbank); format: binding, human; design: Binding of Control serum LUMC to linear peptides / Binding of Control serum Blood-bank to linear peptides / Binding of Control serum LUMC to looped peptides / Binding of Control Serum Blood-Bank to Looped peptides / Binding of Control serum LUMC to linear peptides of the protein M of SARS-CoV Urbani / Binding of Control serum Blood-bank to linear peptides of the protein M of SARS-CoV Urbani / Binding of Control serum LUMC to looped peptides of the protein M of SARS-CoV Urbani / Binding of Control Serum Blood-Bank to Looped peptides of the protein M of SARS-CoV Urbani: unit not given here
[3] = tested on: rabbit serum obtained by immunizing a rabbit with the SARS-CoV strain Frankfurt 1; format: binding; design: Binding of a rabbit serum to linear peptides / Binding of a rabbit serum to looped peptides / Rabbit serum linear peptides / Rabbit serum looped peptides / Binding of a rabbit serum to linear peptides of protein N of SARS-CoV Urbani (Rabbit serum linear peptides) / Binding of a rabbit serum to looped/cyclic peptides of protein N of SARS-CoV Urbani (Rabbit serum looped peptides): unit not given here

## LVDFQVTIAEILIII
[1]
  Binding of serum 1a to linear peptides of protein X3 of SARS-CoV Urbani: 0.8
  Binding of serum 1a to looped/cyclic peptides of protein X3 of SARS-CoV Urbani: 0.7
  Binding of serum 1b to linear peptides of protein X3 of SARS-CoV Urbani: 0.6
  Binding of serum 1b to looped/cyclic peptides of protein X3 of SARS-CoV Urbani: 0.4
  Binding of serum 2 to linear peptides of protein X3 of SARS-CoV Urbani: 0.7
  Binding of serum 2 to looped/cyclic peptides of protein X3 of SARS-CoV Urbani: 0.6
  Binding of serum 6 to linear peptides of protein X3 of SARS-CoV Urbani: 0.5
  Binding of serum 6 to looped/cyclic peptides of protein X3 of SARS-CoV Urbani: 0.3
  Binding of serum 37 to linear peptides of protein X3 of SARS-CoV Urbani: 0.6
  Binding of serum 37 to looped/cyclic peptides of protein X3 of SARS-CoV Urbani: 0.5
  Binding of serum 62 to linear peptides of protein X3 of SARS-CoV Urbani: 0.6
  Binding of serum 62 to looped/cyclic peptides of protein X3 of SARS-CoV Urbani: 0.6
  Binding of serum London to linear peptides of protein X3 of SARS-CoV Urbani: 0.6
  Binding of serum London to looped/cyclic peptides of protein X3 of SARS-CoV Urbani: 0.2
  Binding of serum SARS-green to linear peptides of protein X3 of SARS-CoV Urbani: 0.4
  Binding of serum SARS-green to looped/cyclic peptides of protein X3 of SARS-CoV Urbani: 0.2
  Binding of serum SARS-yellow to linear peptides of protein X3 of SARS-CoV Urbani: 0.7
  Binding of serum SARS-yellow to looped/cyclic peptides of protein X3 of SARS-CoV Urbani: 0.6
[2]
  Binding of Control Serum Blood-Bank to Looped peptides of the protein X3 of SARS-CoV Urbani: 0.6
  Binding of Control serum Blood-bank to linear peptides of the protein X3 of SARS-CoV Urbani: 0.8
  Binding of Control serum LUMC to linear peptides of the protein X3 of SARS-CoV Urbani: 0.9
  Binding of Control serum LUMC to looped peptides of the protein X3 of SARS-CoV Urbani: 0.7
[3]
  Rabbit serum linear peptides: 0.3
  Rabbit serum looped peptides: 0.3

## IWNLDVIISSIVRQL
[1]
  Binding of serum 1a to linear peptides of protein X3 of SARS-CoV Urbani: 0.7
  Binding of serum 1a to looped/cyclic peptides of protein X3 of SARS-CoV Urbani: 0.5
  Binding of serum 1b to linear peptides of protein X3 of SARS-CoV Urbani: 0.3
  Binding of serum 1b to looped/cyclic peptides of protein X3 of SARS-CoV Urbani: 0.4
  Binding of serum 2 to linear peptides of protein X3 of SARS-CoV Urbani: 0.5
  Binding of serum 2 to looped/cyclic peptides of protein X3 of SARS-CoV Urbani: 0.5
  Binding of serum 6 to linear peptides of protein X3 of SARS-CoV Urbani: 0.5
  Binding of serum 6 to looped/cyclic peptides of protein X3 of SARS-CoV Urbani: 0.6
  Binding of serum 37 to linear peptides of protein X3 of SARS-CoV Urbani: 0.6
  Binding of serum 37 to looped/cyclic peptides of protein X3 of SARS-CoV Urbani: 0.5
  Binding of serum 62 to linear peptides of protein X3 of SARS-CoV Urbani: 0.6
  Binding of serum 62 to looped/cyclic peptides of protein X3 of SARS-CoV Urbani: 0.4
  Binding of serum London to linear peptides of protein X3 of SARS-CoV Urbani: 0.6
  Binding of serum London to looped/cyclic peptides of protein X3 of SARS-CoV Urbani: 0.2
  Binding of serum SARS-green to linear peptides of protein X3 of SARS-CoV Urbani: 0.4
  Binding of serum SARS-green to looped/cyclic peptides of protein X3 of SARS-CoV Urbani: 0.3
  Binding of serum SARS-yellow to linear peptides of protein X3 of SARS-CoV Urbani: 0.2
  Binding of serum SARS-yellow to looped/cyclic peptides of protein X3 of SARS-CoV Urbani: 0.6
[2]
  Binding of Control Serum Blood-Bank to Looped peptides of the protein X3 of SARS-CoV Urbani: 0.7
  Binding of Control serum Blood-bank to linear peptides of the protein X3 of SARS-CoV Urbani: 0.6
  Binding of Control serum LUMC to linear peptides of the protein X3 of SARS-CoV Urbani: 0.5
  Binding of Control serum LUMC to looped peptides of the protein X3 of SARS-CoV Urbani: 0.7
[3]
  Rabbit serum linear peptides: 0.2
  Rabbit serum looped peptides: 0.4

## FTEVYYQLESTQITT
[1]
  Binding of serum 1a to linear peptides of protein X1 of SARS-CoV Urbani: 0.8
  Binding of serum 1a to looped/cyclic peptides of protein X1 of SARS-CoV Urbani: 0.5
  Binding of serum 1b to linear peptides of protein X1 of SARS-CoV Urbani: 0.7
  Binding of serum 1b to looped/cyclic peptides of protein X1 of SARS-CoV Urbani: 0.5
  Binding of serum 2 to linear peptides of protein X1 of SARS-CoV Urbani: 0.5
  Binding of serum 2 to looped/cyclic peptides of protein X1 of SARS-CoV Urbani: 0.4
  Binding of serum 6 to linear peptides of protein X1 of SARS-CoV Urbani: 0.5
  Binding of serum 6 to looped/cyclic peptides of protein X1 of SARS-CoV Urbani: 0.4
  Binding of serum 37 to linear peptides of protein X1 of SARS-CoV Urbani: 0.7
  Binding of serum 37 to looped/cyclic peptides of protein X1 of SARS-CoV Urbani: 0.7
  Binding of serum 62 to linear peptides of protein X1 of SARS-CoV Urbani: 0.7
  Binding of serum 62 to looped/cyclic peptides of protein X1 of SARS-CoV Urbani: 0.5
  Binding of serum London to linear peptides of protein X1 of SARS-CoV Urbani: 0.3
  Binding of serum London to looped/cyclic peptides of protein X1 of SARS-CoV Urbani: 0.2
  Binding of serum SARS-green to linear peptides of protein X1 of SARS-CoV Urbani: 0.5
  Binding of serum SARS-green to looped/cyclic peptides of protein X1 of SARS-CoV Urbani: 0.3
  Binding of serum SARS-yellow to linear peptides of protein X1 of SARS-CoV Urbani: 0.5
  Binding of serum SARS-yellow to looped/cyclic peptides of protein X1 of SARS-CoV Urbani: 0.4
[2]
  Binding of Control Serum Blood-Bank to Looped peptides: 0.6
  Binding of Control serum Blood-bank to linear peptides: 0.6
  Binding of Control serum LUMC to linear peptides: 0.5
  Binding of Control serum LUMC to looped peptides: 0.6
[3]
  Binding of a rabbit serum to linear peptides: 0.1
  Binding of a rabbit serum to looped peptides: 0.5
